Values quoted from earlier work as cited in patent publication US9877974B2, “Topical formulations comprising a steroid” (Dr. Reddy's Laboratories Ltd., priority 2009, dated 2018).

Solubility in acetone (acetone): freely soluble
Solubility in chloroform (chloroform): freely soluble
Solubility in ethanol (ethanol): sparingly soluble
Solubility in water (water): practically insoluble
Compound: CCC(=O)OCC(=O)[C@@]1(OC(=O)CC)[C@@H](C)C[C@H]2[C@@H]3CCC4=CC(=O)C=C[C@]4(C)[C@@]3(F)[C@@H](O)C[C@@]21C [Betamethasone dipropionate, 9-fluoro-11(β),17,21-trihydroxy-16(β)-methylpregna-1,4-diene-3,20-dione 17,21-dipropionate]
